Measured values reported in PMC11528023, “Transport mechanism and structural pharmacology of human urate transporter URAT1” (Cell Research, 2024).

Biological target: T1, URAT1 F449A (Homo sapiens, UniProt Q96S37, F449A)
T1 construct: expressed in transfected cells; host or cells: HEK293 cells (ATCC, CRL-3216), transient transfection
T1 sequence (Q96S37 1-553 F449A): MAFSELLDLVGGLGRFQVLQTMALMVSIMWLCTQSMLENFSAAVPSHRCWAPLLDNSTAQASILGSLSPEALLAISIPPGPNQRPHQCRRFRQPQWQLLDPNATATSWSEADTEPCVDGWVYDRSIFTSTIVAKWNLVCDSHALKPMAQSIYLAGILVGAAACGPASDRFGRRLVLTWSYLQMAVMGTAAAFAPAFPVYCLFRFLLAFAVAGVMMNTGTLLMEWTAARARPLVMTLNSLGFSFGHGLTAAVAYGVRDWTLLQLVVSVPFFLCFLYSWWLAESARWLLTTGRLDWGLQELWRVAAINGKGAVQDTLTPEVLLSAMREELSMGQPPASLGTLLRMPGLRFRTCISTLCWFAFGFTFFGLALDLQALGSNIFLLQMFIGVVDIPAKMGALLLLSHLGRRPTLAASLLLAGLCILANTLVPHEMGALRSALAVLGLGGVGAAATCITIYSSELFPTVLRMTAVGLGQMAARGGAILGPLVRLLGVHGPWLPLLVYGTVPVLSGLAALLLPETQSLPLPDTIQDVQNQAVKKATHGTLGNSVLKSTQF
Assay type: cell-based
Conditions: dose-response of 14C-urate uptake, Fig. 6c
Description: Fig. 6 Dotinurad inhibition and the mechanism of URAT1 transport. a Structure of dotinurad-bound URAT1. Detailed interactions between dotinurad and URAT1 are shown on the right. b Dotinurad-binding pocket, depicted in a top view looking down from the extracellular side. c Dose-response curves of URAT1 variants with mutations in the dotinurad-binding site, using the same buffer as defined in Fig. 1 legend. Data are shown as mean ± SD; n = 3 biological replicates. d Comparison between the dotinurad-bound and apo structures. e Schematic diagram of URAT1 importing urate. […]
Human embryonic kidney (HEK) 293 cells (ATCC, CRL-3216) were seeded onto poly(D-lysine)-coated 96-well plates at a density of 0.3 × 10^5 cells per well and cultured at 37 °C until reaching approximately 70%–80% confluence. […] The cells were then lysed in 0.1 M NaOH, and the lysed samples were added to scintillation liquid to measure radioactivity using a PerkinElmer Microbeta2 counter.
For dose-response assays, the cells were incubated with urate and increasing concentrations of inhibitors. […] Nonspecific uptake was measured in each plate in non-transfected cells, and this value was subtracted from the total uptake to obtain the URAT1-specific uptake. To compare the uptake signals among URAT1 variants, the mVenus fluorescence intensity of each construct was measured using fluorescence-detection size-exclusion chromatography[49] […]

For O=C(c1cc(Cl)c(O)c(Cl)c1)N1CS(=O)(=O)c2ccccc21 [dotinurad], the “Effect of F449A mutation on drug sensitivity” value was “completely eliminating URAT1’s sensitivity”.
